Measurements as given in paper PMC3144732, “Rho-Rho kinase pathway in the actomyosin contraction and cell-matrix adhesion in immortalized human trabecular meshwork cells” (Molecular Vision, 2011).
“Also recorded” adds a separate entry of the source.

Columns and labels:
GTM3 cells = assay: Cell morphology (DIC), stress fibers and focal adhesions (F-actin, paxillin staining); format: cell-based, human; conditions: 1 h, serum-rich medium
Method: Cells were first treated for the indicated time period in the serum-rich medium described earlier. Following a brief rinse with PBS, cells were fixed with 4% paraformaldehyde for 10 min and then permeabilized with 0.1% Triton-X for 10 min. For phosphorylated MLC staining, cells were blocked with 10% goat serum + 3% BSA, and, for vinculin and paxillin staining, the cells were blocked with 10% FBS for 1 h. Cells were incubated in primary antibody overnight, followed by secondary antibody incubation for 1 h. Double staining for actin was performed by incubating cells in Texas-red conjugated phalloidin for 20 min. After extensive washing, coverslips were mounted using ProLong AntiFade (Molecular Probes, Eugene, OR). Images were acquired using a Leica SP5 (Leica Microsystems, Bannockburn, IL) confocal microscope. After similar treatments, DIC images of cells fixed on coverslips were also obtained using a Nikon E800 (Nikon Instruments, Melville, NY) microscope.

[1] = test system: MYPT1 phosphorylation at Thr696; assay: Western blot of MYPT1 phosphorylation at Thr696 in GTM3 cells; format: cell-based, human; conditions: 1 h, serum-rich medium; for IC50: GTM3 cells, densitometry of western blot, read-out: IC50 for dephosphorylation of MYPT1 at Thr696
Method: (§1) Cell cultures of an immortalized human glaucomatous trabecular meshwork (GTM3) cell line were grown at 37 °C in 5% CO2 in Dulbecco’s Minimum Essential Medium (DMEM + Glutamax) supplemented with 10% fetal bovine serum and 10 μg/ml of gentamicin (Invitrogen, Grand Island, NY) as previously described. Upon reaching confluence, cells were divided using 0.05% trypsin. Cells of passages 13 to 20 were used in our experiments.
(§2) Following treatment with the desired drugs/agents, cells were rinsed in PBS and solubilized in 300 µl of 2× Laemmli sample buffer. The lysate was sonicated briefly and boiled for 5 min. Equal amounts of protein (30 μg) were loaded in 8% or 12% SDS–PAGE gels. Following electrophoresis, proteins were transferred to a nitrocellulose membrane (Biorad, Hercules, CA), blocked with 5% fat-free milk for 1 h, and incubated with specific phospho-MYPT1 or phospho-MLC antibodies overnight. The membranes were next incubated with the appropriate secondary antibodies for 1 h. The blots were finally washed and developed using an enhanced chemiluminescence kit (Pierce, Rockford, IL) according to the manufacturer’s instructions.
(§3) A one-way ANOVA was used to compare mean values for different treatments with Bonferroni’s post-test analysis (Prism 5.0 for Windows; GraphPad Software, Inc., San Diego, CA). Results are expressed as mean±SEM. For analysis of ECIS (electrical cell-substrate impedance sensing) data, normalized numerical values from individual experiments were pooled and expressed as mean±SEM. A p value of less than 0.05 was considered statistically significant. “n” denotes the number of independent experiments performed. […] The calculations assume that log [drug] versus response follow a sigmoidal shape and were performed with Prism 5.0. The reported values of R indicate goodness of fit.

[2] = test system: GTM3 cells (cell-matrix adhesion); assay: Electrical cell-substrate impedance sensing (ECIS), cell-matrix adhesion; format: cell-based, human
Method: Cells were seeded on gold electrode-plated culture plates (8W10E+) and placed in an incubator at 37 °C with humidified air and 5% CO2. The attachment and spreading of the cells on electrodes was monitored continuously at 4 kHz until the observed electrical resistance reached a plateau and stabilized. This usually occurred within 20–24 h after inoculation. Impedance to current flow was measured at different frequencies (25 Hz to 60 kHz) periodically before and after inoculation. After reaching the steady-state of electric-cell substrate resistance, cells were exposed to the ROCK inhibitors, and the impedance was assessed at different frequencies every 30 min. The change in the measured resistance normalized to that of the bare electrode was taken as a measure of cell-matrix adhesion as discussed further below.
ECIS involves the measurement of impedance to a small AC current applied across cells grown to confluence on planar gold microelectrodes. The measurement is non-invasive, and off-the-shelf instruments such as ECIS^TM 1600R (Applied Biophysics, Inc., Troy, NY) make use of a lock-in amplifier to measure small changes in electrical impedance at a high-temporal resolution. We have previously employed ECIS to assess the integrity of the apical junctional complex of the corneal endothelial monolayers. For epithelial monolayers, such as the corneal endothelium, the resistive component of the measured impedance implies trans-endothelial electrical resistance for current flow between the cells when confluent on the electrode. However, with non-epithelial cells, such as fibroblasts, measured impedance arises mainly out of resistance to current flow across the cell substrate (i.e., cell-matrix adhesion). In this study, we examined the dynamics of such cell-matrix resistance (i.e., resistive component of the measured impedance) with TM cells. […] This increase can be attributed to the attachment of cells to the substrate (gold electrode), which leads to an increased resistance to current flow. […]

[3] = test system: GTM3 cells (actomyosin contraction); assay: Collagen gel contraction assay with GTM3 cells; format: cell-based, human; conditions: for increase in the gel area (relaxation) compared with the control: 10 μM
Method: A collagen gel contraction assay was performed as previously described. The wells of 24-well culture plates were coated with 1% BSA at 37 °C for 1 h. Glaucomatous trabecular meshwork cells were trypsinized and resuspended in culture medium at a density of 1×10^7 cells/ml. Rat-tail collagen Type I (BD Biosciences, San Jose, CA), 10× DMEM (Sigma, St. Louis, MO), reconstitution buffer (pH 7.3), TM cell suspension, and distilled water were mixed on ice to obtain a final concentration of 1.9 mg/ml of collagen and a final cell density of 2×10^5 cells/ml. The resultant mixture (0.5 ml) was added to each well of the BSA-coated culture clusters, and collagen gel formation was induced by incubation at 37 °C for 90 min. Serum-rich or serum-free DMEM (0.5 ml), without or with the drugs, was then added on top of the gels. After 1 h, the gels were freed from the walls of the culture wells. They were subsequently imaged every 24 h for 2 days. The area was calculated using NIH ImageJ software.

normal HTM cells = conditions: 10 μM; cited from earlier work
MLC phosphorylation = assay: Western blot of MLC phosphorylation (ppMLC) in GTM3 cells; format: cell-based, human; conditions: 1 h, serum-rich medium, densitometry of western blot, read-out: IC50 for dephosphorylation of MLC
Method: as §1
Following treatment with the desired drugs/agents, cells were rinsed in PBS and solubilized in 300 µl of 2× Laemmli sample buffer. The lysate was sonicated briefly and boiled for 5 min. Equal amounts of protein (30 μg) were loaded in 8% or 12% SDS–PAGE gels. Following electrophoresis, proteins were transferred to a nitrocellulose membrane (Biorad, Hercules, CA), blocked with 5% fat-free milk for 1 h, and incubated with specific phospho-MYPT1 or phospho-MLC antibodies overnight. The membranes were next incubated with the appropriate secondary antibodies for 1 h. […]
A one-way ANOVA was used to compare mean values for different treatments with Bonferroni’s post-test analysis (Prism 5.0 for Windows; GraphPad Software, Inc., San Diego, CA). Results are expressed as mean±SEM. For analysis of ECIS (electrical cell-substrate impedance sensing) data, normalized numerical values from individual experiments were pooled and expressed as mean±SEM. […]

[4] = test system: MYPT1 phosphorylation at Thr853; assay: Western blot of MYPT1 phosphorylation at Thr853 in GTM3 cells; format: cell-based, human; conditions: 1 h, serum-rich medium; for effect on MYPT1 phosphorylation at Thr853: 5 μM; for IC50: GTM3 cells, densitometry of western blot, read-out: IC50 for dephosphorylation of MYPT1 at Thr853
Method: as §1, §2, §3

[5] = test system: FAK (Tyr397) phosphorylation; assay: Serum-induced tyrosine phosphorylation of FAK (Tyr397), western blot; format: cell-based, human; conditions: 1 μM pretreatment, 10% serum added to serum-starved cells
[6] = rabbits; cited from earlier work
[7] = test system: paxillin (Tyr118) phosphorylation; assay: Serum-induced tyrosine phosphorylation of paxillin (Tyr118), western blot; format: cell-based, human; conditions: 1 μM pretreatment, 10% serum added to serum-starved cells

C[C@@H](N)[C@H]1CC[C@H](C(=O)Nc2ccncc2)CC1 [Y-27632]
change in cell shape (DIC images) (GTM3 cells; 5 μM): apparent shrinkage, with cells assuming a stellate appearance | effect on stress fibers and focal adhesions (GTM3 cells; 5 μM): complete loss of stress fibers and focal adhesions | effect on MYPT1 phosphorylation at Thr696 ([1]; 5 μM): comparatively smaller reduction; also recorded: only slightly reduced; also recorded: only a marginal decrease | IC50 [1]: 2270 nM | change in electrical cell-substrate resistance ([2]; 5 μM, up to 2 h): significant decrease in the peak resistance | increase in the gel area (relaxation) compared with the control ([3]; 48 h, 10% serum): 50% | gel contraction allowed (normal HTM cells): 30% | IC50 (MLC phosphorylation): 1060 nM | effect on MYPT1 phosphorylation at Thr853 [4]: complete dephosphorylation | IC50 [4]: 658 nM

C[C@@H](N)c1ccc(C(=O)Nc2ccnc3[nH]ccc23)cc1 [Y-39983]
change in cell shape (DIC images) (GTM3 cells; 1 μM): apparent shrinkage, with cells assuming a stellate appearance | effect on stress fibers and focal adhesions (GTM3 cells; 1 μM): complete loss of stress fibers and focal adhesions | effect on stress fibers and focal adhesions (GTM3 cells; 5 μM): loss of stress fibers | IC50 [1]: 177 nM | change in electrical cell-substrate resistance ([2]; 1 μM, up to 2 h): significant decrease in resistance; also recorded: rapid and more pronounced | effect on serum-induced tyrosine phosphorylation of FAK at Tyr397 [5]: opposed | decrease in IOP compared to Y-27632 [6]: 10 fold | increase in the gel area compared with the control ([3]; 1 μM, 48 h, 10% serum): 86±5% | decrease in the contraction of the collagen gels ([3]; 5 μM): 100% | effect on serum-induced phosphorylation of paxillin at Tyr118 [7]: opposed | IC50 (MLC phosphorylation): 14 nM | effect on MYPT1 phosphorylation at Thr853 [4]: complete dephosphorylation | IC50 [4]: 15 nM

Cc1ccc2c(c1)C(=O)C1(O)CCN(c3ccccc3)C1=N2 (stereo not shown) [blebbistatin]
increase in the gel area (relaxation) compared with the control ([3]; 48 h, 10% serum): 102±1.3%

C=C1[C@@H](C)[C@H]2[C@H](Cc3ccccc3)NC(=O)[C@]23[C@H](OC(C)=O)/C=C/[C@@](C)(O)C(=O)[C@@H](C)C/C=C/[C@H]3[C@@H]1O [cytochalasin D]
change in electrical cell-substrate resistance ([2]; 0.125 mg/ml): significant decrease in the measured resistance; also recorded: substantial decrease in the resistance
